From ChEMBL document CHEMBL1201862, “PubChem BioAssay data set” (2004)
Several values for one entry are separate records, joined by “and”; a condition that tells them apart may be missing. Equal entries are not always repeated.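 Where inhibition never reached the appropriate level, the endpoint shown equals the highest concentration tested. Otherwise, values were interpolated linearly from a five-concentration, 48-hour dose response in 96-well plates. Abbreviation: GI50, concentration required for 50% inhibition of growth.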 Activity calls are given as the source filed them. Cut-off read from the data, not from the text of the source: active = GI50 up to about 1.1 µM and inactive = higher.

Tests used:
Experiment in all cases: NCI-60 cell line screen, 48 h
MOLT-4 = test system: MOLT-4
U-251 = test system: U-251
LOX IMVI = test system: LOX IMVI
MDA-MB-231 = test system: MDA-MB-231
OVCAR-8 = test system: OVCAR-8
HCT-116 = test system: HCT-116
SF-295 = test system: SF-295
SK-MEL-5 = test system: SK-MEL-5
HCC 2998 = test system: HCC 2998
SF-268 = test system: SF-268
BT-549 = test system: BT-549
MCF7 = test system: MCF7
SW-620 = test system: SW-620
UACC-257 = test system: UACC-257
RXF 393 = test system: RXF 393
A549 = test system: A549
KM12 = test system: KM12
HL-60 = test system: HL-60
NCI-H460 = test system: NCI-H460
HOP-92 = test system: HOP-92
PC-3 = test system: PC-3
NCI-H23 = test system: NCI-H23
IGROV-1 = test system: IGROV-1
COLO 205 = test system: COLO 205
EKVX = test system: EKVX
SR = test system: SR
CCRF-CEM = test system: CCRF-CEM
Hs-578T = test system: Hs-578T
MDA-MB-435 = test system: MDA-MB-435
SN12C = test system: SN12C
A498 = test system: A498
M14 = test system: M14
DU-145 = test system: DU-145
NCI-H522 = test system: NCI-H522
SNB-19 = test system: SNB-19
SK-OV-3 = test system: SK-OV-3
OVCAR-4 = test system: OVCAR-4
SF-539 = test system: SF-539
Malme-3M = test system: Malme-3M
OVCAR-5 = test system: OVCAR-5
TK-10 = test system: TK-10
UO-31 = test system: UO-31
ACHN = test system: ACHN
SNB-75 = test system: SNB-75
786-0 = test system: 786-0
SK-MEL-2 = test system: SK-MEL-2
MDA-N = test system: MDA-N
HCT-15 = test system: HCT-15
OVCAR-3 = test system: OVCAR-3
CAKI-1 = test system: CAKI-1
HT-29 = test system: HT-29
NCI/ADR-RES = test system: NCI/ADR-RES
NCI-H226 = test system: NCI-H226
SK-MEL-28 = test system: SK-MEL-28
UACC-62 = test system: UACC-62
HOP-62 = test system: HOP-62
K562 = test system: K562
RPMI-8226 = test system: RPMI-8226
T47D = test system: T47D

Measured: GI50

c1ccc(CCNCc2ccco2)nc1
> 100 µM: HCT-15
active: SR 1 µM
inactive: MOLT-4 > 100 µM | U-251 > 100 µM | LOX IMVI > 100 µM | MDA-MB-231 > 100 µM | OVCAR-8 > 100 µM | HCT-116 > 100 µM | SF-295 > 100 µM | SK-MEL-5 > 100 µM | HCC 2998 > 100 µM | SF-268 > 100 µM | BT-549 > 100 µM | MCF7 > 83.9 µM | SW-620 > 100 µM | UACC-257 > 100 µM | RXF 393 > 100 µM | A549 > 100 µM | KM12 > 100 µM | HL-60 > 100 µM | NCI-H460 > 100 µM | HOP-92 > 100 µM | PC-3 > 100 µM | NCI-H23 > 100 µM | IGROV-1 > 100 µM | COLO 205 > 100 µM | EKVX > 100 µM | CCRF-CEM > 48.6 µM | Hs-578T > 100 µM | MDA-MB-435 > 100 µM | SN12C > 100 µM | A498 > 100 µM | M14 > 100 µM | DU-145 > 100 µM | NCI-H522 > 100 µM | SNB-19 > 100 µM | SK-OV-3 > 100 µM | OVCAR-4 > 100 µM | SF-539 > 100 µM | Malme-3M > 100 µM | OVCAR-5 > 100 µM | TK-10 > 100 µM | UO-31 > 100 µM | ACHN > 100 µM | SNB-75 > 77.4 µM | 786-0 > 100 µM | SK-MEL-2 > 100 µM | MDA-N > 100 µM | OVCAR-3 > 100 µM | CAKI-1 > 100 µM | HT-29 > 100 µM | NCI/ADR-RES > 100 µM | NCI-H226 > 100 µM | SK-MEL-28 > 100 µM | UACC-62 > 100 µM | HOP-62 > 100 µM

N#Cc1c2c(c(-c3cccs3)n(C3OC(CO)C(O)C(O)C3O)c1=S)CCc1ccccc1-2 (configuration not stated)
7.03 µM and 6.32 µM: HCT-15
inactive: MOLT-4 8.32 µM and 14.3 µM | U-251 37.2 µM and 21.4 µM | LOX IMVI > 22.3 µM and > 22.2 µM | OVCAR-8 97.5 µM and > 87.7 µM | SF-295 27.6 µM and 48.6 µM | HCC 2998 59.8 µM and > 41.5 µM | BT-549 > 100 µM | MCF7 5.42 µM and 3.85 µM | K562 6.58 µM and 4.93 µM | SW-620 > 100 µM | UACC-257 > 43.8 µM and > 51.2 µM | RXF 393 24.3 µM and 23 µM | KM12 > 45.6 µM and 38.2 µM | HL-60 > 20.9 µM | PC-3 46.3 µM and 28.4 µM | IGROV-1 97.9 µM and > 86.3 µM | COLO 205 30 µM and 40 µM | EKVX > 24.9 µM | SR 5.82 µM and 4.76 µM | CCRF-CEM > 57.8 µM and 36.8 µM | Hs-578T 8.97 µM and 5.97 µM | MDA-MB-435 3.36 µM and 3.44 µM | SN12C > 26.7 µM and > 21.7 µM | DU-145 > 100 µM | SNB-19 > 100 µM and 98.2 µM | SK-OV-3 7.67 µM and 7.45 µM | OVCAR-4 29.8 µM and > 39 µM | Malme-3M 66.2 µM and 35.6 µM | OVCAR-5 > 100 µM | TK-10 > 29 µM and > 20.8 µM | UO-31 3.04 µM | SK-MEL-2 > 100 µM and > 56.8 µM | MDA-N 6.4 µM and 4.23 µM | OVCAR-3 20.8 µM and 22.5 µM | CAKI-1 6.65 µM and 6.14 µM | NCI-H226 > 100 µM | SK-MEL-28 > 100 µM | UACC-62 5.64 µM and 7.8 µM

CCOC(=O)[C@H](Cc1ccc(O)cc1)/N=C1/[C@H]2CCC[C@]1(O)[C@@](C)([N+](=O)[O-])C2
> 100 µM: HCT-15
inactive: MOLT-4 > 100 µM | U-251 > 100 µM | LOX IMVI > 100 µM | OVCAR-8 > 100 µM | HCT-116 > 100 µM | SF-295 > 100 µM | SK-MEL-5 > 100 µM | HCC 2998 > 100 µM | BT-549 > 100 µM | MCF7 > 100 µM | K562 > 100 µM | SW-620 > 100 µM | UACC-257 > 100 µM | RXF 393 > 100 µM | A549 > 100 µM | KM12 > 100 µM | HL-60 > 100 µM | NCI-H460 > 100 µM | HOP-92 > 100 µM | RPMI-8226 > 100 µM | NCI-H23 > 100 µM | IGROV-1 > 100 µM | COLO 205 > 100 µM | EKVX > 100 µM | SR > 100 µM | CCRF-CEM > 100 µM | Hs-578T > 100 µM | MDA-MB-435 > 100 µM | SN12C > 100 µM | A498 > 100 µM | M14 > 100 µM | DU-145 > 100 µM | NCI-H522 63.7 µM | SNB-19 > 100 µM | SK-OV-3 > 100 µM | OVCAR-4 > 100 µM | SF-539 > 100 µM | Malme-3M > 100 µM | OVCAR-5 > 100 µM | TK-10 > 100 µM | UO-31 > 100 µM | ACHN > 100 µM | 786-0 > 100 µM | MDA-N > 100 µM | OVCAR-3 > 100 µM | CAKI-1 > 100 µM | HT-29 > 100 µM | NCI/ADR-RES > 100 µM | NCI-H226 > 100 µM | SK-MEL-28 > 100 µM | UACC-62 > 100 µM

COc1ccccc1NCc1cccc2c(=O)c3ccc(Cl)cc3oc12
> 100 µM: HCT-15
inactive: MOLT-4 > 100 µM | U-251 33.5 µM | LOX IMVI > 100 µM | MDA-MB-231 > 100 µM | OVCAR-8 > 100 µM | HCT-116 > 100 µM | SF-295 > 100 µM | SK-MEL-5 > 100 µM | HCC 2998 > 100 µM | BT-549 > 100 µM | MCF7 28.1 µM | K562 47.1 µM | SW-620 76.9 µM | UACC-257 60.5 µM | A549 78.3 µM | KM12 40.1 µM | HL-60 22.9 µM | HOP-92 25.7 µM | PC-3 58.7 µM | RPMI-8226 39.3 µM | NCI-H23 59.3 µM | IGROV-1 56 µM | COLO 205 56.9 µM | EKVX > 100 µM | SR 83.4 µM | CCRF-CEM 48 µM | MDA-MB-435 65 µM | SN12C > 100 µM | A498 > 100 µM | M14 > 100 µM | NCI-H522 > 100 µM | SNB-19 92.7 µM | SK-OV-3 > 100 µM | OVCAR-4 > 100 µM | SF-539 65.2 µM | Malme-3M 34.7 µM | OVCAR-5 > 100 µM | TK-10 > 100 µM | UO-31 95.9 µM | ACHN > 100 µM | SNB-75 28 µM | 786-0 > 100 µM | SK-MEL-2 49.1 µM | MDA-N 93.8 µM | OVCAR-3 35.8 µM | CAKI-1 > 100 µM | HT-29 46.6 µM | NCI/ADR-RES > 100 µM | T47D > 100 µM | NCI-H226 > 100 µM | SK-MEL-28 > 100 µM | UACC-62 > 100 µM | HOP-62 > 100 µM

COc1ccc([C@H](NC(=O)c2ccccc2)[C@@H](O)C(=O)O[C@H]2C[C@@]3(O)C(OC(=O)c4ccccc4)C4[C@](C)(C(=O)[C@H](OC(C)=O)C(=C2C)C3(C)C)[C@@H](O)C[C@H]2OC[C@@]42OC(C)=O)cc1 (some centres not stated)
inactive: MDA-MB-231 > 10 µM | OVCAR-4 3.11 µM | NCI/ADR-RES > 6.43 µM
active: MOLT-4 0.00286 µM | U-251 0.00695 µM | LOX IMVI 0.0012 µM | OVCAR-8 0.00434 µM | HCT-116 < 0.001 µM | SF-295 0.0783 µM | SK-MEL-5 0.00244 µM | HCC 2998 0.00301 µM | SF-268 0.00415 µM | BT-549 0.0299 µM | MCF7 < 0.001 µM | K562 0.00122 µM | SW-620 0.00508 µM | UACC-257 0.00542 µM | RXF 393 0.0412 µM | A549 0.00618 µM | KM12 < 0.001 µM | HL-60 < 0.001 µM | NCI-H460 0.00931 µM | HOP-92 0.0586 µM | PC-3 0.00255 µM | RPMI-8226 < 0.001 µM | NCI-H23 0.00236 µM | IGROV-1 0.00344 µM | COLO 205 0.00274 µM | EKVX 0.22 µM | SR 0.00182 µM | CCRF-CEM 0.00184 µM | Hs-578T < 0.001 µM | MDA-MB-435 < 0.001 µM | SN12C 0.00284 µM | M14 0.00604 µM | DU-145 0.00248 µM | NCI-H522 0.00227 µM | SNB-19 0.0368 µM | SK-OV-3 0.00117 µM | SF-539 0.00112 µM | Malme-3M 0.0028 µM | OVCAR-5 0.182 µM | TK-10 0.0703 µM | UO-31 0.126 µM | ACHN 0.724 µM | SNB-75 < 0.001 µM | 786-0 0.0389 µM | SK-MEL-2 0.00705 µM | MDA-N 0.00468 µM | CAKI-1 0.249 µM | HT-29 < 0.001 µM | NCI-H226 0.00673 µM | SK-MEL-28 0.00593 µM | UACC-62 0.00136 µM | HOP-62 0.015 µM
0.366 µM: HCT-15
